The record followed here is patent US4866057A, “4-substituted 10-cyanomethylenepyrrolo[4,3-e]-benzazepines” (BASF Aktiengesellschaft, priority 1987, dated 1989).

Where two headings read alike, the source gives them in different places.

The test system of test [1] is orientation hypermotility. The test is described as follows: Sedative action (orientation hypermotility, mouse). The format is in vivo, female NMRI mice. Particulars: oral; for ED50: 0.5 h, 50% decrease in orientation hypermotility vs control, measured from 30 min after dosing for 30 min, read-out: Sedative action mouse ED 50; for sedative action compared with clozapine: in words, action of reference clozapine. As to the method: 4 to 8 groups each comprising 3 female NMRI mice receive the substances by oral administration. The orientation hypermotility induced by a new environment is determined photoelectrically 30 min after the administration of the substance for a period of 30 min.
The ED50 is determined as the dose which brings about a decrease in the orientation hypermotility of 50% compared with placebo-treated control animals.

In the next test the test system is physostigmine. Nature of the test: Anticholinergic action (protection from lethal physostigmine). Particulars: oral, mouse, 30 min before physostigmine 0.825 mg/kg s.c.; protects 50% from death; read-out: Anticholinergic mouse ED 50. The test is classed as in vivo, female NMRI mice. As to the method:
3. Anticholinergic action
Groups of 10 female NMRI mice receive physostigmine in a lethal dose (0.825 mg/kg) subcutaneously. The test substances are administered orally 30 min before the physostigmine administration. The ED50 is determined as the dose of substance which protects 50% of the animals from death due to physostigmine.

A further test has as its target T1, dopamine D1 receptor (Bos taurus, UniProt Q95136).
T1 construct: bovine nucleus caudatus membranes; from tissue; host or cells: bovine caudate nucleus membranes
Nature of the test: Affinity to dopamine D1 receptor, competitive assay, 3H-SCH 23390. The format is binding, bovine. As to the method:
(§1) 4. In vitro determination of the affinity to dopamine D1 and D2 receptors by means of competitive assays
(§2) The non-specific binding was determined using 10 μM (+)-butaclamol or using 1 μM haloperidol. After incubation at 30° C. for 60 min, the mixtures were filtered through glass fiber filters (GF/B, Whatman) and the amount of radioligand retained on the filter was determined by liquid scintillation measurement.

The target in another test is T2, dopamine D2 receptor (Bos taurus, UniProt P20288).
T2 construct: bovine nucleus caudatus membranes; from tissue; host or cells: bovine caudate nucleus membranes
Nature of the test: Affinity to dopamine D2 receptor, competitive assay, 3H-spiperon. The format is binding, bovine. As to the method:
as §1, §2

Test [2] deals with L-5-Hydroxytryptamine (L-5-HTP). Nature of the test: L-5-HTP antagonism (serotonin antagonism). The format is in vivo, rats. Particulars: oral, rat; for ED50: 1 h before L-5-HTP (316 mg/kg i.p.), 50% mean reduction in score, read-out: Antiserotoninergic action rat ED; for antiserotoninergic action compared with clozapine: in words, action of reference clozapine. The method, then:
2. L-5-HTP antagonism (serotonin antagonism)
L-5-Hydroxytryptamine (L-5-HTP), a serotonin prodrug, causes in rats (316 mg/kg i.p.) a state of agitation which is characterized by signs such as head-shaking, tremor and movements of the forepaws. The animals are observed for 1 h after administration of L-5-HTP, and the signs are scored every 10 min. The test substances are administered orally 1 h before L-5-HTP; n/dose=6. The ED50 is calculated as the dose which brings about a mean reduction in the score of a control group by 50%.

Setting [3] is: bovine nucleus caudatus membranes, pH 7.4, 30° C., 60 min, 1 nM radioligand, read-out: Affinity to D1 receptor, Inhibition of 3H-SCH 23 390 binding, Ki.
Setting [4] is: bovine nucleus caudatus membranes, pH 7.4, 30° C., 60 min, 0.2 nM radioligand, read-out: Affinity to D2 receptor, Inhibition of 3H-spiperon binding, Ki.

T1 sequence (Q95136 whole entry): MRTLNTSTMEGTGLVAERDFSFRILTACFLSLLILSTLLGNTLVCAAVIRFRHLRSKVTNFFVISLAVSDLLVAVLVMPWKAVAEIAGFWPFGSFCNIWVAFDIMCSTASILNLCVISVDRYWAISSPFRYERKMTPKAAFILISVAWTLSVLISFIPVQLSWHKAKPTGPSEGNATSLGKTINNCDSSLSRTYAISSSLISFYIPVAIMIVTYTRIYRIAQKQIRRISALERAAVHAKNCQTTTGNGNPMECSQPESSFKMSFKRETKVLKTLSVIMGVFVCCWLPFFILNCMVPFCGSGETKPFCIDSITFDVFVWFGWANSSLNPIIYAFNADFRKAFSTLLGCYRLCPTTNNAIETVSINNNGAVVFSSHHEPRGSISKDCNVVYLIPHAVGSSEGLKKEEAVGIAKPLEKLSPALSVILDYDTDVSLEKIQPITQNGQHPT
T2 sequence (P20288 whole entry): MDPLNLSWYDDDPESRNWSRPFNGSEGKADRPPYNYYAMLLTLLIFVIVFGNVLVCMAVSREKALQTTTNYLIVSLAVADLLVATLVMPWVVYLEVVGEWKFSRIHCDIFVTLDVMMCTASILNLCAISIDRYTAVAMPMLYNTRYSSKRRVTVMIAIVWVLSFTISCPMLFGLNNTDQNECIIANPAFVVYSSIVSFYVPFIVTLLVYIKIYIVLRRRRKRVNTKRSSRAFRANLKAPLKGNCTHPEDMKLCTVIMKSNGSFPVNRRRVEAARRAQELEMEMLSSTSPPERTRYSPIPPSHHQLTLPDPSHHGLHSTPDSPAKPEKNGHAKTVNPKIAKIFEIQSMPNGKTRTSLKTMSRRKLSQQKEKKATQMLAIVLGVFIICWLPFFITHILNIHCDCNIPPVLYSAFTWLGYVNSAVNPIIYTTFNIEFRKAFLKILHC

Turning to `CN1CCN(C2=Nc3cc(Cl)ccc3C(=CC#N)c3cn(Cc4ccccc4)cc32)CC1` [Example 11, (E),(Z)-7-Chloro-2-benzyl-10-cyanomethylene-4-(4-methyl-1-piperazinyl)pyrrolo[4,3-e]benzazepine], the ED50 was 35 mg/kg in test [1] and greater than 100 mg/kg in the test with physostigmine. The Ki on dopamine D1 receptor (setting [3]) was 0.0128 µM; on dopamine D2 receptor (setting [4]) it was roughly 1 µM.
Turning to `CN1CCN(C2=Nc3ccccc3/C(=C/C#N)c3cn(C)cc32)CC1` [Example 1a, 10-Cyanomethylene-2-methyl-4-(4-methyl-1-piperazinyl)pyrrolo[4,3-e]benzazepine], the ED50 is 2.96 mg/kg in test [1], 1.18 mg/kg in test [2] and greater than 21.5 mg/kg with physostigmine. Also, the “sedative action compared with clozapine” value in test [1] is “reached or exceeded”. In addition, in test [2], the “antiserotoninergic action compared with clozapine” value is listed as “reached or exceeded”. For the same molecule, the Ki on dopamine D1 receptor is 0.0105 µM; on dopamine D2 receptor, roughly 2 µM.
Take `CCN1CCN(C2=Nc3ccccc3C(=CC#N)c3cn(C)cc32)CC1` [Example 12, (E),(Z)-10-Cyanomethylene-2-methyl-4-(4-ethyl-1-piperazinyl)pyrrolo[4,3-e]benzazepine]: the ED50 in test [1] turned out to be 4.7 mg/kg; in test [2], 3.3 mg/kg; in the test with physostigmine, 16.7 mg/kg. Also, in test [2], the “antiserotoninergic action compared with clozapine” value is recorded as “reached or exceeded”. Further, the figures for the Ki at dopamine D1 receptor (setting [3]) and on dopamine D2 receptor (setting [4]) were 0.0208 µM and roughly 2 µM, respectively.
As to `CN1CCN(C2=Nc3ccccc3C(=CC#N)c3cn(Cc4ccccc4)cc32)CC1` [Example 9, (E),(Z)-10-Cyanomethylene-2-benzyl-4-(4-methyl-1-piperazinyl)pyrrolo[4,3-e]benzazepine], the ED50 in test [1] is 29.8 mg/kg; in test [2] it was 46.4 mg/kg; with physostigmine, greater than 46.4 mg/kg. Besides, the Ki at dopamine D1 receptor (setting [3]) was 0.0034 µM; on dopamine D2 receptor (setting [4]), roughly 1 µM.
`CN1CCN(C2=Nc3cc(Cl)ccc3/C(=C/C#N)c3cn(C)cc32)CC1` [Example 3a, (E)-7-Chloro-10-cyanomethylene-2-methyl-4-(4-methyl-1-piperazinyl)pyrrolo[4,3-e]benzazepine]: the ED50 in test [1] came out at 0.67 mg/kg; in test [2], 0.29 mg/kg.
Taken in the same sequence, the figures for `CN1CCN(C2=Nc3cc(Cl)ccc3Nc3ccccc32)CC1` [Clozapine, clozapine, reference compound] were 3.8 mg/kg and 6.3 mg/kg.
For the molecule `CN1CCN(C2=Nc3cc(Cl)ccc3C(=CC#N)c3cn(C)cc32)CC1` [Example 3, (E),(Z)-7-Chloro-10-cyanomethylene-2-methyl-4-(4-methyl-1-piperazinyl)pyrrolo[4,3-e]benzazepine], the ED50 was determined as 0.82 mg/kg in test [1], 0.2 mg/kg in test [2] and 17.5 mg/kg in the test on physostigmine. In addition, the “sedative action compared with clozapine” value in test [1] is “reached or exceeded”. For the same molecule, the “antiserotoninergic action compared with clozapine” value in test [2] was “reached or exceeded”. Besides, the inhibition constant Ki at dopamine D1 receptor (setting [3]) was 0.02 µM; at dopamine D2 receptor (setting [4]) it was roughly 1 µM.

The Ki is the equilibrium dissociation constant of an inhibitor or competing ligand from its target.
